The values below come from US20090270379A1, “QUINOLONE DERIVATIVES USEFUL AS ANTIBACTERIAL AGENTS” (priority 2008, published 2009).

Format in all cases: cell-based
Test [1] deals with strain B, fluoroquinolone-resistant clinical isolate of Streptococcus pneumoniae. The test can be described thus: In vitro antibacterial activity (MIC), microdilution broth method, strain B. The settings on record: read-out: MIC (μg/mL) B. The protocol: (§1) Minimal inhibitory concentration (MIC) is an indicator of in vitro antibacterial activity. […] The in vitro antimicrobial activity of representative compounds of the present invention was determined by the microdilution broth method following the test method from the National Committee for Clinical Laboratory Standards (NCCLS). This method is described in the NCCLS Document M7-A4, Vol. 17, No. 2, “Methods for Dilution Antimicrobial Susceptibility Test for Bacteria that Grow Aerobically—Fourth Edition”, which is incorporated herein by reference.
(§2) In this method two-fold serial dilutions of drug in cation adjusted Mueller-Hinton broth were added to wells in microdilution trays. The test organisms were prepared by adjusting the turbidity of actively growing broth cultures so that the final concentration of test organism after it is added to the wells was approximately 5×10^4 CFU/well. Following inoculation of the microdilution trays, the trays were incubated at 35° C. for 16-20 hours and then read. The amount of growth in the wells containing the test compound was compared with the amount of growth in the growth-control wells (no test compound) used in each tray.
(§3) Representative compounds of the present invention were tested against a variety of pathogenic bacteria with results as listed in Table 3, below.

The test system of test [2] is strain D, fluoroquinolone-resistant clinical isolate of Streptococcus pneumoniae. The test can be described thus: In vitro antibacterial activity (MIC), microdilution broth method, strain D. To be noted: read-out: MIC (μg/mL) D. Here is the method: as §1, §2, §3
In test [3] the test system is Streptococcus pneumoniae ATCC 49619. The test can be described thus: In vitro antibacterial activity (MIC), microdilution broth method, strain E. To be noted: ATCC49619, 35° C., 16-20 hours. Here is the method: as §1, §2, §3
Test [4] has as its system Staphylococcus aureus OC4172. Kind of test: In vitro antibacterial activity (MIC), microdilution broth method, strain A. The settings on record: cation adjusted Mueller-Hinton broth, 35° C., 16-20 hours. Here is the method:
as §1, §2, §3

Test [5] relates to strain C, fluoroquinolone-resistant clinical isolate of Streptococcus pneumoniae. Kind of test: In vitro antibacterial activity (MIC), microdilution broth method, strain C. The settings on record: read-out: MIC (μg/mL) C. Here is the method: as §1, §2, §3

Values after ≈ are worked out from the molar mass of the structure shown. Some results are limits rather than exact numbers.

With `O=C(O)c1cn(C2CC2)c2c(OC(F)F)c(-c3cc4n(c3)CCNC4)ccc2c1=O` [Compound 1, 1-Cyclopropyl-8-difluoromethoxy-4-oxo-7-(1,2,3,4-tetrahydro-pyrrolo[1,2-a]pyrazin-7-yl)-1,4-dihydro-quinoline-3-carboxylic acid], the MIC in test [1] is 1 µg/mL (≈ 2.41 µM); in test [2] it was 8 µg/mL (≈ 19.3 µM); in test [3] it was 0.5 µg/mL (≈ 1.2 µM); in test [4] it was 0.06 µg/mL (≈ 0.144 µM); in test [5] it was 8 µg/mL (≈ 19.3 µM).
With `O=C(O)c1cn(C2CC2)c2c(OC(F)F)c(C3=C[C@H]4CN(Cc5ccccc5)CCN4C3)ccc2c1=O` [Compound 2, 7-(2-Benzyl-1,2,3,4,6,8a-hexahydro-pyrrolo[1,2S-a]pyrazin-7-yl)-1-cyclopropyl-8-difluoromethoxy-4-oxo-1,4-dihydro-quinoline-3-carboxylic acid], the MIC is more than 16 µg/mL in test [1]; more than 16 µg/mL in test [2]; 8 µg/mL (≈ 15.8 µM) in test [3]; 0.5 µg/mL (≈ 0.985 µM) in test [4]; more than 16 µg/mL in test [5].
As to `O=C(O)c1cn(C2CC2)c2c(OC(F)F)c(C3C[C@H]4CNCCN4C3)ccc2c1=O` (stereo partly drawn) [Compound 3, 1-Cyclopropyl-8-difluoromethoxy-7-(octahydro-pyrrolo[1,2S-a]pyrazin-7-yl)-4-oxo-1,4-dihydro-quinoline-3-carboxylic acid], the MIC in test [1] was more than 16 µg/mL; in test [2], more than 16 µg/mL; in test [3], more than 16 µg/mL; in test [4] it was 8 µg/mL (≈ 19.1 µM); in test [5], more than 16 µg/mL.
For `CN1CCn2cc(-c3ccc4c(=O)c(C(=O)O)cn(C5CC5)c4c3OC(F)F)cc2C1` [Compound 4, 1-Cyclopropyl-8-difluoromethoxy-7-(2-methyl-1,2,3,4-tetrahydro-pyrrolo[1,2-a]pyrazin-7-yl)-4-oxo-1,4-dihydro-quinoline-3-carboxylic acid], the MIC is 2 µg/mL (≈ 4.66 µM) in test [1]; more than 16 µg/mL in test [2]; 2 µg/mL (≈ 4.66 µM) in test [3]; 0.25 µg/mL (≈ 0.582 µM) in test [4]; more than 16 µg/mL in test [5].
In the case of `CN1CCN2CC(c3ccc4c(=O)c(C(=O)O)cn(C5CC5)c4c3OC(F)F)C[C@H]2C1` (stereo partly shown) [Compound 5, 1-Cyclopropyl-8-difluoromethoxy-7-(2-methyl-octahydro-pyrrolo[1,2s-a]pyrazin-7-yl)-4-oxo-1,4-dihydro-quinoline-3-carboxylic acid], the MIC is more than 16 µg/mL in test [1]; more than 16 µg/mL in test [2]; more than 16 µg/mL in test [3]; 8 µg/mL (≈ 18.5 µM) in test [4]; more than 16 µg/mL in test [5].
On to `C[C@H]1CN2CC(c3ccc4c(=O)c(C(=O)O)cn(C5CC5)c4c3OC(F)F)C[C@H]2CN1` (stereo partly drawn) [Compound 6, 1-Cyclopropyl-8-difluoromethoxy-7-(3S-methyl-octahydro-pyrrolo[1,2S-a]pyrazin-7-yl)-4-oxo-1,4-dihydro-quinoline-3-carboxylic acid], for which the MIC is more than 16 µg/mL in test [1]; more than 16 µg/mL in test [2]; more than 16 µg/mL in test [3]; 4 µg/mL (≈ 9.23 µM) in test [4]; more than 16 µg/mL in test [5].
For `C[C@H]1Cn2cc(-c3ccc4c(=O)c(C(=O)O)cn(C5CC5)c4c3OC(F)F)cc2CN1` [Compound 7, 1-Cyclopropyl-8-difluoromethoxy-7-(3S-methyl-1,2,3,4-tetrahydro-pyrrolo[1,2-a]pyrazin-7-yl)-4-oxo-1,4-dihydro-quinoline-3-carboxylic acid], the MIC in test [1] is 1 µg/mL (≈ 2.33 µM); in test [2], 16 µg/mL (≈ 37.3 µM); in test [3] it was 1 µg/mL (≈ 2.33 µM); in test [4] it was 0.12 µg/mL (≈ 0.279 µM); in test [5], 8 µg/mL (≈ 18.6 µM).
In the case of `C[C@@H]1NCCn2cc(-c3ccc4c(=O)c(C(=O)O)cn(C5CC5)c4c3OC(F)F)cc21` [Compound 8, 1-Cyclopropyl-8-difluoromethoxy-7-(1S-methyl-1,2,3,4-tetrahydro-pyrrolo[1,2-a]pyrazin-7-yl)-4-oxo-1,4-dihydro-quinoline-3-carboxylic acid], the MIC in test [1] is 4 µg/mL (≈ 9.31 µM); in test [2] it was more than 16 µg/mL; in test [3], 1 µg/mL (≈ 2.33 µM); in test [4], 0.5 µg/mL (≈ 1.16 µM); in test [5], 16 µg/mL (≈ 37.3 µM).
The like results for `C[C@H]1NCCn2cc(-c3ccc4c(=O)c(C(=O)O)cn(C5CC5)c4c3OC(F)F)cc21` [Compound 9, 1-Cyclopropyl-8-difluoromethoxy-7-(1R-methyl-1,2,3,4-tetrahydro-pyrrolo[1,2-a]pyrazin-7-yl)-4-oxo-1,4-dihydro-quinoline-3-carboxylic acid] were, in that order, 4 µg/mL (≈ 9.31 µM), more than 16 µg/mL, 1 µg/mL (≈ 2.33 µM), 0.5 µg/mL (≈ 1.16 µM) and 16 µg/mL (≈ 37.3 µM).
Turning to `CN[C@@H](C)C(=O)N1CCn2cc(-c3ccc4c(=O)c(C(=O)O)cn(C5CC5)c4c3OC(F)F)cc2C1` [Compound 10, 1-Cyclopropyl-8-difluoromethoxy-7-[2S-(2-methylamino-propionyl)-1,2,3,4-tetrahydro-pyrrolo[1,2-a]pyrazin-7-yl]-4-oxo-1,4-dihydro-quinoline-3-carboxylic acid], the MIC in test [1] was 4 µg/mL (≈ 7.99 µM); in test [2], more than 16 µg/mL; in test [3], 2 µg/mL (≈ 4 µM); in test [4] it was 0.25 µg/mL (≈ 0.499 µM); in test [5], 16 µg/mL (≈ 32 µM).
On to `COc1c(-c2cc3n(c2)C[C@H](C)NC3)c(F)cc2c(=O)c(C(=O)O)cn(C3CC3)c12` [Compound 11, 1-Cyclopropyl-6-fluoro-8-methoxy-7-(3S-methyl-1,2,3,4-tetrahydro-pyrrolo[1,2-a]pyrazin-7-yl)-4-oxo-1,4-dihydro-quinoline-3-carboxylic acid], for which the MIC in test [1] worked out at 0.5 µg/mL (≈ 1.22 µM); in test [2] it was 4 µg/mL (≈ 9.72 µM); in test [3], 0.12 µg/mL (≈ 0.292 µM); in test [4], 0.03 µg/mL (≈ 0.0729 µM); in test [5] it was 1 µg/mL (≈ 2.43 µM).
The like results for `COc1c(-c2cc3n(c2)C[C@@H](C)NC3)c(F)cc2c(=O)c(C(=O)O)cn(C3CC3)c12` [Compound 12, 1-Cyclopropyl-6-fluoro-8-methoxy-7-(3R-methyl-1,2,3,4-tetrahydro-pyrrolo[1,2-a]pyrazin-7-yl)-4-oxo-1,4-dihydro-quinoline-3-carboxylic acid] were, in that order, 1 µg/mL (≈ 2.43 µM), 8 µg/mL (≈ 19.4 µM), 0.25 µg/mL (≈ 0.608 µM), 0.03 µg/mL (≈ 0.0729 µM) and 2 µg/mL (≈ 4.86 µM).
In the same order, the values of `COc1c(-c2cc3n(c2)C[C@H](C)N(C)C3)c(F)cc2c(=O)c(C(=O)O)cn(C3CC3)c12` [Compound 13, 1-Cyclopropyl-7-(2,3S-dimethyl-1,2,3,4-tetrahydro-pyrrolo[1,2-a]pyrazin-7-yl)-6-fluoro-8-methoxy-4-oxo-1,4-dihydro-quinoline-3-carboxylic acid] are 0.5 µg/mL (≈ 1.18 µM), 8 µg/mL (≈ 18.8 µM), 0.5 µg/mL (≈ 1.18 µM), 0.12 µg/mL (≈ 0.282 µM) and 4 µg/mL (≈ 9.4 µM).
In the case of `COc1c(-c2cc3n(c2)C[C@@H](C)N(C)C3)c(F)cc2c(=O)c(C(=O)O)cn(C3CC3)c12` [Compound 14, 1-Cyclopropyl-7-(2,3R-dimethyl-1,2,3,4-tetrahydro-pyrrolo[1,2-a]pyrazin-7-yl)-6-fluoro-8-methoxy-4-oxo-1,4-dihydro-quinoline-3-carboxylic acid], the MIC in test [1] was 2 µg/mL (≈ 4.7 µM); in test [2] it was more than 16 µg/mL; in test [3], 1 µg/mL (≈ 2.35 µM); in test [4], 0.25 µg/mL (≈ 0.588 µM); in test [5] it was 8 µg/mL (≈ 18.8 µM).
In the same order, the values of `COc1c(-c2cc3n(c2)C[C@H](CO)N(C)C3)c(F)cc2c(=O)c(C(=O)O)cn(C3CC3)c12` [Compound 15, 1-Cyclopropyl-6-fluoro-7-(3R-hydroxymethyl-2-methyl-1,2,3,4-tetrahydro-pyrrolo[1,2-a]pyrazin-7-yl)-8-methoxy-4-oxo-1,4-dihydro-quinoline-3-carboxylic acid] are 4 µg/mL (≈ 9.06 µM), 16 µg/mL (≈ 36.2 µM), 1 µg/mL (≈ 2.27 µM), 0.12 µg/mL (≈ 0.272 µM) and 8 µg/mL (≈ 18.1 µM).
In the case of `COc1c(-c2cc3n(c2)CCN[C@H]3C)c(F)cc2c(=O)c(C(=O)O)cn(C3CC3)c12` [Compound 16, 1-Cyclopropyl-6-fluoro-8-methoxy-7-(1S-methyl-1,2,3,4-tetrahydro-pyrrolo[1,2-a]pyrazin-7-yl)-4-oxo-1,4-dihydro-quinoline-3-carboxylic acid], the MIC is 2 µg/mL (≈ 4.86 µM) in test [1]; 8 µg/mL (≈ 19.4 µM) in test [2]; 0.5 µg/mL (≈ 1.22 µM) in test [3]; 0.12 µg/mL (≈ 0.292 µM) in test [4]; 4 µg/mL (≈ 9.72 µM) in test [5].
For the molecule `COc1c(-c2cc3n(c2)CCN[C@@H]3C)c(F)cc2c(=O)c(C(=O)O)cn(C3CC3)c12` [Compound 17, 1-Cyclopropyl-6-fluoro-8-methoxy-7-(1R-methyl-1,2,3,4-tetrahydro-pyrrolo[1,2-a]pyrazin-7-yl)-4-oxo-1,4-dihydro-quinoline-3-carboxylic acid], the MIC in test [1] is 8 µg/mL (≈ 19.4 µM); in test [2], more than 16 µg/mL; in test [3], 2 µg/mL (≈ 4.86 µM); in test [4], 0.25 µg/mL (≈ 0.608 µM); in test [5], 16 µg/mL (≈ 38.9 µM).
